According to US20150315179A1, “COMPOUNDS AND METHODS OF TREATING NEUROLOGICAL DISORDERS” (Torrey Pines Institute For Molecular Studies, priority 2014, published 2015):

How the values were obtained:
[1] = test system: sAPPα release, NT2 cells stably expressing human APP751; assay: sAPPα ELISA, NT2 cells expressing APP751; assay type: cell-based; settings: 24 h
Protocol: (5). To confirm the effect of THPI-244 on sAPPα levels in a neuronal cell line and by a tertiary assay, we exposed human Neuron-committed Teratocarcinoma cell line (NT2) stably expressing human APP751 to different concentrations of THPI-244 for 24 h and compared with that of Bryostatin, a classical activator of PKC known to stimulate sAPPα release. […] Levels of sAPPα were measured by ELISA using commercially available kit (cat #27734, IBL-America, Minneapolis, Minn., USA). […] Similar biphasic effect of Bryostatin was confirmed for Aβ42 also, measured again in NT2 stable cells by ELISA (cat # KHB3441, Life Technologies, Grand Island, N.Y., USA). Consistent with sAPPα, THPI-244 decreased Aβ42 levels dose-dependently starting from 50 nM (28%, p<0.05) to 2000 nM (64%, p<0.001) (n=4 independent experiments) (FIG. 1.7). Thus THPI-244 increased non-amyloidogenic processing of APP in NT2 cells.

TrkA dimer = molecular target: T1, TrkA dimer (Homo sapiens, UniProt P04629); assay: TrkA dimerization immunoblot, NT2 cells; assay type: cell-based; settings: 48 h
T1 construct: endogenous in cells; host or cells: NT2 cells (stably expressing APP751; no TrkA transfection described)
T1 sequence (P04629 33-796): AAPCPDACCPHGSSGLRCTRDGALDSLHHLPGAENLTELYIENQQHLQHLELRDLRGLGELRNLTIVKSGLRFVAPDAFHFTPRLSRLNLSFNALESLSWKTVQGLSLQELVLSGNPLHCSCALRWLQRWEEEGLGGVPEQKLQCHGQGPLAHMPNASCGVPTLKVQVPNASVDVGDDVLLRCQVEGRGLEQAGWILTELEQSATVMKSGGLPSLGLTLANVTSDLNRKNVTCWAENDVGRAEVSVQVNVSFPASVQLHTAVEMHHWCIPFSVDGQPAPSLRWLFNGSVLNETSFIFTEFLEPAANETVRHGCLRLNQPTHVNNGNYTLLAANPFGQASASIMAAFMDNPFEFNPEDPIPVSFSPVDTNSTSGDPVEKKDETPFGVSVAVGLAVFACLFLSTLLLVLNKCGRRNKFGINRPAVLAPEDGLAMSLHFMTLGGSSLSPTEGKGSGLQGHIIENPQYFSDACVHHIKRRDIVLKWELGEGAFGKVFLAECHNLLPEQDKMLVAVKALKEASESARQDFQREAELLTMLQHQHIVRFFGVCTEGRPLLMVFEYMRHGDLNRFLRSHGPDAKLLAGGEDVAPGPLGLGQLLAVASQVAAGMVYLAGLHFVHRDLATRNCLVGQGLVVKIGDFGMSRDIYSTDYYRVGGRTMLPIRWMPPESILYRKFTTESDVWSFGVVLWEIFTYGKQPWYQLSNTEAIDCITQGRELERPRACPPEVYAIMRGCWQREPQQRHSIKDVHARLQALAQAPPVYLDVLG
Protocol: FIGS. 9.4A and B illustrates that THPI-244 increases TrkA dimerization in NT2 cells. FIG. 9.4A illustrates that NT2 cells were treated with THPI-244 at 100 and 200 nM for 48 h and the cell lysates were subjected to immunoblots. TrkA monomer was detected at 140 kDa and dimer at 280 kDA. […] Data are mean±SEM, n=4, **, p<0.01, ***, p<0.001 by ANOVA.

TrkA receptors = TrkA receptors (Homo sapiens, UniProt P04629); assay: Octet Red label-free binding; settings: biotinylated TrkA on SSA biosensors
Sequence of TrkA receptors (P04629 33-796): as above
Protocol: FIGS. 9.1A and B illustrate that THPI-244 directly binds TrkA receptors as determined by label-free, real-time Octet Red detection system. FIG. 9.1A illustrates that biotinylated TrkA was loaded on to super-streptavidin (SSA) biosensors and after obtaining the baseline, were incubated with THPI-244 which dose-dependently bound TrkA receptors (Association). Incubation with kinetics buffer rapidly dissociated the binding.

[2] = test system: PI3Kα, MAPK, PLC-γ, P75NTR pathways; assay: Signal transduction analysis, NT2 cells; assay type: cell-based, human
Source text: (2). THPI-244 increases sAPPα by a novel mechanism of upregulating TrkA, a neurotrophic receptor. Therefore, in addition to increasing neuroprotective sAPPα and decreasing toxic Aβ, THPI-244 mediated increased TrkA protein levels are expected to provide neurotrophic support. Following the validation of the effect of THPI-244 in increasing sAPPα levels in CHO cells, NT2 cells, AD fibroblasts and human primary neurons, we were interested in identifying the molecular target of THPI-244 for unraveling the molecular mechanism by which it increases sAPPα which in turn can predict toxicity profile and whether to pursue long-term studies. Increased protein levels of both native and phosphorylated form of TrkA in NT2 cells and mouse brains by THPI-244 validated TrkA as the target.

[3] = test system: sAPPα release from 7WD10 cells; assay: AlphaLISA sAPPα release assay (pilot screen); assay type: cell-based; settings: 5 μM, 7WD10 cells, 24 h
Protocol: Pilot screen of AlphaLISA sAPPα release assay. 8 μL of assay media (DMEM supplemented with 10% FBS and 1× Penicillin/Streptomycin) containing 20,000 cells were added to all wells of the assay plate, except column 1 where only media was added. Plates were incubated for 4 h at 37° C., 5% CO2, 95% RH after which 80 nL of test compounds in DMSO or DMSO alone were added to respective wells using a pin tool device (VP Scientific, San Diego). After 24 h of incubation at 37° C., 5% CO2, 95% RH, sAPPα AlphaLISA beads were added in 10 μL of buffer, equilibrated for 1 h, and AlphaLISA signal was measured using a Biotek H4 Synergy microplate reader (Biotek Inc). Three parameters were calculated on a per-plate basis: (a) the signal-to-background ratio (S/B); (b) the coefficient for variation [CV; CV=(standard deviation/mean)×100)] for all compound test wells; and (c) the Z′-factor [31]. Nominally active compounds from the pilot screen were determined using mean plus 3 times the standard deviation (Mean+3SD) was used as the cut-off.

sAPPα [4] = assay: sAPPα increasing activity of THPI-244 analogs; assay type: cell-based
Source text: The following table illustrates Chemical structures and properties of THPI-244 analogs selected out of 37 analogs, and each have significant sAPPα increasing activity. Toxicity is the minimum dose for toxicity.

sAPPα [5] = assay: Mouse brain lysate immunoblot, sAPPα; assay type: in vivo; settings: i.p. 100 mg/kg for 5 days, brain lysates
Protocol: FIGS. 9.2A and B illustrate that THPI-244 increases TrkA and sAPPα in the mouse brain. FIG. 9.2A illustrates that THPI-244 was administered to mice by i.p. injections at 100 mg/kg body weight for 5 days and the brain lysates were subjected to immunoblots. Specific antibodies were used to detect TrkA and sAPPα. […] Data are mean±SEM, n=3*, p<0.05, ***, p<0.001.

[6] = test system: sAPPα levels, human primary neurons transiently transfected with APP751 with Swedish mutation; assay: sAPPα ELISA, human primary neurons transfected with APP751; assay type: cell-based
Protocol: (1). […] Therefore, we first used fibroblasts derived from AD patients (AG06263C, Coriell Cell repository, supported by NINDS/NIH) and exposed to THPI-244 for 24 h and measured sAPPα release by ELISA as done above for NT2 cells. […] We also confirmed dose-dependent effect of THPI-244 on sAPPα levels in human primary neurons transiently transfected with APP751 with Swedish mutation which is trafficked differently from WT APP and releases more sAPPα. Human neurons were grown on specially coated glass coverslips (cat # GG-18-PDL, NeuVitro, Germany). We could reproducibly achieve nearly 30% transfection efficiency using a nanoparticle based transfection reagent called Neuromag (cat # NM150299, OZ Biosciences, France).

## O=C(Cc1ccccc1)N[C@H](CNc1nc(CN2CCN(C(=O)Cc3ccccc3)CC2)cs1)c1ccccc1 [THPI-244]
[1]
  concentration from which sAPPα increase is significant: 50 nM
TrkA dimer; 100 nM
  increase of TrkA dimer: 82%
TrkA dimer; 200 nM
  increase of TrkA dimer: 134%
TrkA receptors
  Kd: 5.2 µM
[2]
  MAPK or PLC-γ pathways: not
  PI3Kα pathway: activation
[3]
  increase of Alpha signal (sAPPα release): ~2 fold
sAPPα [4]
  % sAPPα ↑: 257%
sAPPα [5]
  increase of sAPPα: 89%
[6]; 50 nM
  increase of sAPPα levels: 171%
[6]; 2000 nM
  increase of sAPPα levels: 301%
